In US7985410B2, “Method or agent for inhibiting the function of efflux pump Pseudomonas aeruginosa” (Tokai University, priority 2006, dated 2011):
Where two headings read alike, the source gives them in different places.

Key:
Format in all cases: cell-based
[1] = system: Pseudomonas aeruginosa lacking OprM, plasmid with OprM (wild type); assay: Drug sensitivity (MIC), OprM (wild type)
Experimental: (§1) Mutant protein was prepared in which 20 amino acid residues were replaced by cysteine residues, respectively, in E1 and E2 domains of the amino acid sequence of mature OprM protein as above. First, OprM gene was introduced into pUCP20 as a vector. This vector is a shuttle vector which works in Escherichia coli and Pseudomonas aeruginosa. Specific mutation was introduced to OprM gene by using regular mutation introducing kit, and resultant vector was transformed into E. coli. The resultant E. coli was cultured to prepare plasmid, and the sequence of the plasmid was determined to confirm that the mutation was successfully introduced.
(§2) Next, the plasmid was introduced into the Pseudomonas aeruginosa lacking OprM, and the drug sensitivity of the resultant bacteria was determined to evaluate the pump function thereof. Drug sensitivity might be enhanced if the function of the pump was inhibited. Drug sensitivity was indicated by minimum inhibitory concentration (MIC). Aztreonam (AZT) (β-1 lactam antibiotic) and nalidixic acid (NA) (qunolone antibiotic) were used as drugs.

[2] = system: Pseudomonas aeruginosa lacking OprM, plasmid with OprM (P100C); assay: Drug sensitivity (MIC), OprM (P100C)
Experimental: as §1, §2

[3] = system: Pseudomonas aeruginosa lacking OprM, plasmid with OprM (G101C); assay: Drug sensitivity (MIC), OprM (G101C)
Experimental: as §1, §2

[4] = system: Pseudomonas aeruginosa lacking OprM, plasmid with OprM (D102C); assay: Drug sensitivity (MIC), OprM (D102C)
Experimental: as §1, §2

[5] = system: Pseudomonas aeruginosa lacking OprM, plasmid with OprM (L103C); assay: Drug sensitivity (MIC), OprM (L103C)
Experimental: as §1, §2

[6] = system: Pseudomonas aeruginosa lacking OprM, plasmid with OprM (S104C); assay: Drug sensitivity (MIC), OprM (S104C)
Experimental: as §1, §2

[7] = system: Pseudomonas aeruginosa lacking OprM, plasmid with OprM (T105C); assay: Drug sensitivity (MIC), OprM (T105C)
Experimental: as §1, §2

[8] = system: Pseudomonas aeruginosa lacking OprM, plasmid with OprM (T106C); assay: Drug sensitivity (MIC), OprM (T106C)
Experimental: as §1, §2

[9] = system: Pseudomonas aeruginosa lacking OprM, plasmid with OprM (G107C); assay: Drug sensitivity (MIC), OprM (G107C)
Experimental: as §1, §2

[10] = system: Pseudomonas aeruginosa lacking OprM, plasmid with OprM (S108C); assay: Drug sensitivity (MIC), OprM (S108C)
Experimental: as §1, §2

[11] = system: Pseudomonas aeruginosa lacking OprM, plasmid with OprM (P109C); assay: Drug sensitivity (MIC), OprM (P109C); conditions: for MIC: Pseudomonas aeruginosa, OprM (P109C)
Experimental: as §1, §2

[12] = system: Pseudomonas aeruginosa lacking OprM, plasmid with OprM (R311C); assay: Drug sensitivity (MIC), OprM (R311C); conditions: for resistance of the bacteria to the drug (in words): OprM (311C) mutant vs wild type; for MIC: Pseudomonas aeruginosa, OprM (R311C)
Experimental: as §1, §2

[13] = system: Pseudomonas aeruginosa lacking OprM, plasmid with OprM (Q312C); assay: Drug sensitivity (MIC), OprM (Q312C)
Experimental: as §1, §2

[14] = system: Pseudomonas aeruginosa lacking OprM, plasmid with OprM (L313C); assay: Drug sensitivity (MIC), OprM (L313C)
Experimental: as §1, §2

[15] = system: Pseudomonas aeruginosa lacking OprM, plasmid with OprM (S314C); assay: Drug sensitivity (MIC), OprM (S314C)
Experimental: as §1, §2

[16] = system: Pseudomonas aeruginosa lacking OprM, plasmid with OprM (G315C); assay: Drug sensitivity (MIC), OprM (G315C)
Experimental: as §1, §2

[17] = system: Pseudomonas aeruginosa lacking OprM, plasmid with OprM (L316C); assay: Drug sensitivity (MIC), OprM (L316C)
Experimental: as §1, §2

[18] = system: Pseudomonas aeruginosa lacking OprM, plasmid with OprM (F317C); assay: Drug sensitivity (MIC), OprM (F317C)
Experimental: as §1, §2

[19] = system: Pseudomonas aeruginosa lacking OprM, plasmid with OprM (D318C); assay: Drug sensitivity (MIC), OprM (D318C); conditions: for resistance of the bacteria to the drug (in words): OprM (D318C) mutant vs wild type; for MIC: Pseudomonas aeruginosa, OprM (D318C)
Experimental: as §1, §2

[20] = system: Pseudomonas aeruginosa lacking OprM, plasmid with OprM (A319C); assay: Drug sensitivity (MIC), OprM (A319C)
Experimental: as §1, §2

[21] = system: Pseudomonas aeruginosa lacking OprM, plasmid with OprM (G320C); assay: Drug sensitivity (MIC), OprM (G320C)
Experimental: as §1, §2

C[C@H]1[C@H](NC(=O)/C(=N\OC(C)(C)C(=O)O)c2csc(N)n2)C(=O)N1S(=O)(=O)O [AZT, aztreonam]
markedly reduced resistance: resistance of the bacteria to the drug (in words) [12] | resistance of the bacteria to the drug (in words) [19]
1.54 µg/mL: MIC ([18]; read-out: MIC for AZT) | MIC ([20]; read-out: MIC for AZT) | MIC ([21]; read-out: MIC for AZT)
3.13 µg/mL: MIC ([1]; read-out: MIC for AZT) | MIC ([2]; read-out: MIC for AZT) | MIC ([3]; read-out: MIC for AZT) | MIC ([4]; read-out: MIC for AZT) | MIC ([5]; read-out: MIC for AZT) | MIC ([6]; read-out: MIC for AZT) | MIC ([7]; read-out: MIC for AZT) | MIC ([8]; read-out: MIC for AZT) | MIC ([9]; read-out: MIC for AZT) | MIC ([10]; read-out: MIC for AZT) | MIC ([11]; read-out: MIC for AZT) | MIC ([14]; read-out: MIC for AZT) | MIC ([15]; read-out: MIC for AZT) | MIC ([17]; read-out: MIC for AZT)
0.39 µg/mL: MIC ([12]; read-out: MIC for AZT) | MIC ([19]; read-out: MIC for AZT)
0.78 µg/mL: MIC ([13]; read-out: MIC for AZT) | MIC ([16]; read-out: MIC for AZT)

CCn1cc(C(=O)O)c(=O)c2ccc(C)nc21 [NA, nalidixic acid]
3.13 µg/mL: MIC ([11]; read-out: MIC for NA)
did not reduce resistance: resistance of the bacteria to the drug (in words) [19]
50 µg/mL: MIC ([1]; read-out: MIC for NA) | MIC ([2]; read-out: MIC for NA) | MIC ([3]; read-out: MIC for NA) | MIC ([4]; read-out: MIC for NA) | MIC ([5]; read-out: MIC for NA) | MIC ([6]; read-out: MIC for NA) | MIC ([7]; read-out: MIC for NA) | MIC ([8]; read-out: MIC for NA) | MIC ([9]; read-out: MIC for NA) | MIC ([10]; read-out: MIC for NA) | MIC ([14]; read-out: MIC for NA) | MIC ([15]; read-out: MIC for NA) | MIC ([17]; read-out: MIC for NA) | MIC ([18]; read-out: MIC for NA) | MIC ([20]; read-out: MIC for NA) | MIC ([21]; read-out: MIC for NA)
6.25 µg/mL: MIC ([12]; read-out: MIC for NA)
25 µg/mL: MIC ([13]; read-out: MIC for NA) | MIC ([16]; read-out: MIC for NA) | MIC ([19]; read-out: MIC for NA)
enhanced drug sensitivity: drug sensitivity of the bacteria (in words) ([11]; OprM (P109C) mutant vs wild type)
markedly reduced resistance: resistance of the bacteria to the drug (in words) [12]
